According to PMC6981064 (Biochemical and biophysical research communications, 2019):

What was measured:
[1] = molecular target: T1, glutamate-oxaloacetate transaminase 1 (GOT1) (Homo sapiens, UniProt P17174); assay: MDH1-coupled enzyme assay, […] h pre-incubation; format: biochemical
[2] = molecular target: T1, glutamate-oxaloacetate transaminase 1 (GOT1); assay: MDH1-coupled enzyme assay, percent inhibition; format: biochemical

T1 sequence (P17174 2-413): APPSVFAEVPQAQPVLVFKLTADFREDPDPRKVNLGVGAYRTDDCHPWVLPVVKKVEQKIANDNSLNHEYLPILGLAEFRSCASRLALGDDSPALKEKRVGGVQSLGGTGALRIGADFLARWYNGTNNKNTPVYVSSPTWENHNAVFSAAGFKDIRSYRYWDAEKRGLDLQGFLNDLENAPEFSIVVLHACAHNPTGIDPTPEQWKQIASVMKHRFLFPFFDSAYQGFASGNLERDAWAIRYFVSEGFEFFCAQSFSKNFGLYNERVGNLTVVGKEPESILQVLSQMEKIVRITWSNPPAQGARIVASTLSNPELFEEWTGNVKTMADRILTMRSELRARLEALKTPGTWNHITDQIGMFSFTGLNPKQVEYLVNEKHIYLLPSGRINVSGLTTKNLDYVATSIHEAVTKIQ

Structure (SMILES) | IC50 [1] [µM] | MDH1-coupled enzyme assay, percent inhibition [2]
N[C@H]1Cc2ccccc2N(O)C1=O [PF-04859989] | 8 | 
NOCC(=O)O [amino-oxyacetate] |  | The pan-transaminase inhibitor amino-oxyacetate (AOA) was used as a positive control
